The assay has as its target T1, CSN (BspCsnMN) (Bacillus sp. MN, UniProt H9CXV8).
T1 construct: GH8 chitosanase (EC 3.2.1.132), Strep-tag II fusion (pET-22b(+)::StrepII-csn), expressed in E. coli Rosetta 2 (DE3), Strep-Tactin purified
The assay is described as follows: UHPLC-ELSD-ESI-MS product quantification, Hill fit. In kind it is biochemical. To be noted: 40 mM sodium acetate pH 6, 30 °C, 10 min.

From paper PMC6419424, “Rational protein design of Bacillus sp. MN chitosanase for altered substrate binding and production of specific chitosan oligomers” (Journal of Biological Engineering, 2019) come the findings set out here.

T1 sequence (H9CXV8 entry or part of it): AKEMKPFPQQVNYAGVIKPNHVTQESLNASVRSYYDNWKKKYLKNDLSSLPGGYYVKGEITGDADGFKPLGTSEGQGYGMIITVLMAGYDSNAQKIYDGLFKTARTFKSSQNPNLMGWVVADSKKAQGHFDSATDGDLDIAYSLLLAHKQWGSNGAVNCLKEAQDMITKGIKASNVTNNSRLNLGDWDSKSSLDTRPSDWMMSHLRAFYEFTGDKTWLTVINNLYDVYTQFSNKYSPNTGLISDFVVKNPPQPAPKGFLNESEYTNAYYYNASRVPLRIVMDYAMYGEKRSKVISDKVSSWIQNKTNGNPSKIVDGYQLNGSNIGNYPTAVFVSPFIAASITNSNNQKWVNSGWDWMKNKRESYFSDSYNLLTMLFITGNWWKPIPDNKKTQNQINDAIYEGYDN

Regarding `N[C@H]1[C@H](O[C@H]2[C@H](O)[C@@H](N)[C@H](O[C@H]3[C@H](O)[C@@H](N)[C@H](O[C@H]4[C@H](O)[C@@H](N)[C@H](O[C@H]5[C@H](O)[C@@H](N)C(O)O[C@@H]5CO)O[C@@H]4CO)O[C@@H]3CO)O[C@@H]2CO)O[C@H](CO)[C@@H](O)[C@@H]1O` (stereo partly shown) [D5], the “UHPLC-ELSD-ESI-MS product quantification, Hill fit” value was “CSN showed high activity on the polymer, and it was even slightly more active on D5”.
